Results published in ChEMBL document CHEMBL3351754, “Rational use of plasma protein and tissue binding data in drug design” (J Med Chem, 2014).

What was measured:
[1] = Fraction unbound in mouse brain
[2] = Fraction unbound in 100% human serum; format: ADME, cell-free

Row | Structure (SMILES) | fraction unbound [1] | fraction unbound [2]
1 | CCCC(C)(COC(N)=O)COC(N)=O [MEPROBAMATE] | 0.76 | 
2 | O=C(O)[C@H](Oc1cccc(C(F)(F)F)c1)c1ccc(Cl)cc1 [MBX-102 ACID FORM] |  | 0.009
